Our source for the EC50 values is US20250066344A1 (BRISTOL-MYERS SQUIBB COMPANY, priority 2021, published 2025).

pEC50: −log10 of the molar value.

The target of this test is T1, human RXFP1 (Homo sapiens, UniProt Q9HBX9).
T1 construct: expressed in transfected cells
T1 sequence (Q9HBX9 1-757): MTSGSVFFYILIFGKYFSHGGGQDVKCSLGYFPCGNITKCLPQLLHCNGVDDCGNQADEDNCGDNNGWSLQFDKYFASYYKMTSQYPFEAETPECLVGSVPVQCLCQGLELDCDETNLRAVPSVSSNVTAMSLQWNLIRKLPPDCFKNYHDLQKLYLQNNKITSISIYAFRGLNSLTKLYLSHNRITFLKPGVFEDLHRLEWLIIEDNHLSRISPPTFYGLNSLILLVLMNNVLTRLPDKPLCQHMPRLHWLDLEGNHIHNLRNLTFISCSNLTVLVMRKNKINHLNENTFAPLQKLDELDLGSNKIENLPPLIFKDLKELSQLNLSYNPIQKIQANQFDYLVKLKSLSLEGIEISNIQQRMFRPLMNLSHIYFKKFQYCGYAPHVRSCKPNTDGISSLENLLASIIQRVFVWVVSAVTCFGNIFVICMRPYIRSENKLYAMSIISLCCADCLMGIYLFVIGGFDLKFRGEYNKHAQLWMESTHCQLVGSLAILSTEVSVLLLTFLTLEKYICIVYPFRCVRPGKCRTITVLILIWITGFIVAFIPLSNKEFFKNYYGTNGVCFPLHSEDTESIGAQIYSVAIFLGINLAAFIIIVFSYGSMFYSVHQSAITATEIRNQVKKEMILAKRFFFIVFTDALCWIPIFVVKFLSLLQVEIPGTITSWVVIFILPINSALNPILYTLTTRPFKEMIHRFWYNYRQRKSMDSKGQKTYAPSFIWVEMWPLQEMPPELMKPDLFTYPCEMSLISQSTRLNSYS
Put plainly: RXFP1 cyclic adenosine monophosphate (cAMP) assay, hRXFP1 HEK293. It counts as cell-based. Particulars: HEK293 cells stably expressing human RXFP1; 30 min at room temperature; HTRF cAMP. As to the method: RXFP1 Cyclic Adenosine Monophosphate (cAMP) Assays. Human embryonic kidney cells 293 (HEK293) cells and HEK293 cells stably expressing human RXFP1, were cultured in MEM medium supplemented with 10% qualified FBS, and 300 μg/ml hygromycin (Life Technologies). Cells were dissociated and suspended in assay buffer. The assay buffer was HBSS buffer (with calcium and magnesium) containing 20 mM HEPES, 0.05% BSA, and 0.5 mM IBMX. Cells (3000 cells per well, except 1500 cell per well for HEK293 cells stably expressing human RXFP1) were added to 384-well Proxiplates (Perkin-Elmer). Cells were immediately treated with test compounds in DMSO (2% final) at final concentrations in the range of 0.010 nM to 50 μM. Cells were incubated for 30 min at room temperature. The level of intracellular cAMP was determined using the HTRF HiRange cAMP assay reagent kit (Cisbio) according to manufacturer's instructions. Solutions of cryptate conjugated anti-cAMP and d2 fluorophore-labelled cAMP were made in a supplied lysis buffer separately. Upon completion of the reaction, the cells were lysed with equal volume of the d2-cAMP solution and anti-cAMP solution. After a 1 h room temperature incubation, time-resolved fluorescence intensity was measured using the Envision (Perkin-Elmer) at 400 nm excitation and dual emission at 590 nm and 665 nm. A calibration curve was constructed with an external cAMP standard at concentrations ranging from 2.7 μM to 0.1 μM by plotting the fluorescent intensity ratio from 665 nm emission to the intensity from the 590 nm emission against cAMP concentrations. The potency and activity of a compound to […] cAMP production was then determined by fitting to a 4-parametric logistic equation from a plot of cAMP level versus compound concentrations.
The examples disclosed below were tested in the human RXFP1 (hRXFP) HEK293 cAMP assay described above and found to have agonist activity. Tables 1-3, lists EC50 values in the hRXFP1 HEK293 cAMP assay measured for the examples.
Table A lists EC50 values in the hRXFP1 HEK293 cAMP assay measured for the examples.
One may read the pEC50 as −log10 of the EC50, conventionally taken in molar units. Low values mean a high EC50, high ones a low EC50. Compound `COc1ccc(C(=O)N2CC(C(C)(C)O)C2)cc1C(=O)Nc1cc2c(cc1C(=O)Nc1ccc(F)c(C(F)(F)F)c1)OC(F)(F)O2` [Example 38, 2,2-difluoro-N-(4-fluoro-3-(trifluoromethyl)phenyl)-6-(5-(3-(2-hydroxypropan-2-yl)azetidine-1-carbonyl)-2-methoxybenzamido) benzo[d][1,3]dioxole-5-carboxamide] gave a pEC50 of 7.08.
Turning to `COc1ccc(-c2cc([C@H](OC(=O)NC3CCC3)C(F)(F)F)ccc2F)cc1C(=O)Nc1cc2c(C)noc2cc1C(=O)Nc1ccc(F)c(C(F)(F)F)c1` [Example 32, (S)-2,2,2-trifluoro-1-(6-fluoro-3′-((6-((4-fluoro-3-(trifluoromethyl)phenyl)carbamoyl)-3-methylbenzo[d]isoxazol-5-yl)carbamoy])-4-methoxy-[1,1′-biphenyl]-3-yl)ethyl cyclobutylcarbamate], the pEC50 is 7.74.
In the case of `COc1ccc(C(=O)NCC2(S(C)(=O)=O)CC2)cc1C(=O)Nc1cc2c(cc1C(=O)Nc1ccc(F)c(C(F)(F)F)c1)OC(F)(F)O2` [Example 35, N3-(2,2-difluoro-6-((4-fluoro-3-(trifluoromethyl)phenyl)carbamoyl)benzo[d][1,3]dioxol-5-yl)-4-methoxy-N1-((1-(methylsulfonyl)cyclopropyl)methyl)isophthalamide] it was 8.22.
Consider `COc1ccc(C2=NOC(C(C)(C)O)C2)cc1C(=O)Nc1cc2nc(C)sc2cc1C(=O)Nc1ccc(F)c(C(F)(F)F)c1` (centres unmarked) [Example 11, N-(4-fluoro-3-(trifluorometh-yl)phenyl)-5-(5-(5-(2-hydroxypro-pan-2-yl)-4,5-dihydroisox-azol-3-yl)-2-methoxybenz-amido)-2-methylbenzo [d]thiazole-6-carboxamide], for which the pEC50 was 6.80.
The same measure for `COc1ccc(C2=NOC3(CCNCC3)C2)cc1C(=O)Nc1cc2c(cc1C(=O)Nc1ccc(F)c(C(F)(F)F)c1)OC(F)(F)O2` [Example 67, 2,2-difluoro-N-(4-fluoro-3-(trifluoromethyl)phenyl)-6-(2-methoxy-5-(1-oxa-2,8-diazaspiro[4.5]dec-2-en-3-yl)benzamido)benzo[d] [1,3]dioxole-5-carboxamide]: 6.51; for `COc1ccc(-c2cc(C(=O)O)ccc2F)cc1C(=O)Nc1cc2c(cc1C(=O)Nc1ccc(F)c(C(F)(F)F)c1)OC(F)(F)O2` [Example 57, 3′-((2,2-difluoro-6-((4-fluoro-3-(trifluoromethyl)phenyl)carbamoyl)benzo[d][1,3]dioxol-5-yl)carbamoyl)-6-fluoro-4′-methoxy-[1,1′-biphenyl]-3-carboxylic acid]: 6.90; for `COc1ccc(C2=NOC(C)(CO)C2)cc1C(=O)Nc1cc2c(cc1C(=O)Nc1ccc(F)c(C(F)(F)F)c1)OC(F)(F)O2` (single isomer, unassigned) [Example 71, 2,2-difluoro-N-(4-fluoro-3-(trifluoromethyl)phenyl)-6-(5-(5-(hydroxymethyl)-5-methyl-4,5-dihydroisoxazol-3-yl)-2-methoxybenzamido) benzo[d][1,3]dioxole-5-carboxamide]: 7.37.
In the case of `COc1ccc(-c2cc([C@H](OC(=O)NC3CCC3)C(F)(F)F)ccc2F)cc1C(=O)Nc1cc2sc(C)nc2cc1C(=O)Nc1ccc(F)c(C(F)(F)F)c1` [Example 16, (S)-2,2,2-trifluoro-1-(6-fluoro-3′-((5-((4-fluoro-3-(trifluorometh-yl)phenyl)car-bamoyl)-2-methylbenzo [d]thiazol-6-yl)carbamoyl)-4′-methoxy-[1,1′-biphen-yl]-3-ylethylcyclobutylcar-bamate] it was 7.34; in that of `COc1ccc(C2=NOC3(COC(=O)C3)C2)cc1C(=O)Nc1cc2c(cc1C(=O)Nc1ccc(F)c(C(F)(F)F)c1)OC(F)(F)O2` (centres unmarked) [Example 78, 2,2-difluoro-N-(4-fluoro-3-(trifluoromethyl)phenyl)-6-(2-methoxy-5-(8-oxo-1,7-dioxa-2-azaspiro[4.4]non-2-en-3-yl)benzamido)benzo[d] [1,3]dioxole-5-carboxamide], 6.58; in that of `COc1ccc(C#CC(C)(C)O)cc1C(=O)Nc1cc2c(cc1C(=O)Nc1ccc(F)c(C(F)(F)F)c1)OC(F)(F)O2` [Example 58, 2,2-difluoro-N-(4-fluoro-3-(trifluoromethyl)phenyl)-6-(5-(3-hydroxy-3-methylbut-1-yn-1-yl)-2-methoxybenzamido) benzo[d][1,3]dioxole-5-carboxamide], 5.97.
The same measure for `O=C(Nc1cc2c(cc1C(=O)Nc1ccc(F)c(C(F)(F)F)c1)OC(F)(F)O2)c1csc(C2=NOC3COCC23)n1` (single isomer, unassigned) [Example 94, N-(2,2-difluoro-6-((4-fluoro-3-(trifluoromethyl)phenyl)carbamoyl)benzo[d][1,3]dioxol-5-yl)-2-(3a,4,6,6a-tetrahydrofuro[3,4-d]isoxazol-3-yl)thiazole-4-carboxamide]: 5.85.
Regarding `COc1ccc(C2=NOC3COCC23)cc1C(=O)Nc1cc2nc(C)sc2cc1C(=O)Nc1ccc(F)c(C(F)(F)F)c1` (centres unmarked) [Example 3, N-(4-fluoro-3-(trifluorometh-yl)phenyl)-5-(2-methoxy-5-(3a,4,6,6a-tetrahydrofuro [3,4-d]isox-azol-3-yl)-benzamido)-2-methylbenzo [d]thiazole-6-carboxamide], the pEC50 was 8.07.
As to `COc1ccc(-c2ccc3c(c2)CCNC3)cc1C(=O)Nc1cc2c(cc1C(=O)Nc1ccc(F)c(C(F)(F)F)c1)OC(F)(F)O2` [Example 93, 2,2-difluoro-N-(4-fluoro-3-(trifluoromethyl)phenyl)-6-(2-methoxy-5-(1,2,3,4-tetrahydroisoquinolin-6-yl)benzamido)benzo[d] [1,3]dioxole-5-carboxamide], the pEC50 is 5.96.
In the case of `COc1ccc(C2CCNC2)cc1C(=O)Nc1cc2c(cc1C(=O)Nc1ccc(F)c(C(F)(F)F)c1)OC(F)(F)O2` (single isomer, unassigned) [Example 54, 2,2-difluoro-N-(4-fluoro-3-(trifluoromethyl)phenyl)-6-(2-methoxy-5-(pyrrolidin-3-yl)benzamido)benzo[d] [1,3]dioxole-5-carboxamide] it was 6.17; in that of `COc1ccc(C2=NOC3CC(O)CC23)cc1C(=O)Nc1cc2nc(C)sc2cc1C(=O)Nc1ccc(F)c(C(F)(F)F)c1` (single isomer, unassigned) [Example 23, N-(4-fluoro-3-(trifluorometh-yl)phenyl)-5-(5-(5-hydroxy-3a,5,6,6a-tetrahydro-4H-cyclopenta [d]isoxazol-3-yl)-2-methoxy-benzamido)-2-methylbenzo [d]thiazole-6-carboxamide], 6.12.
The same measure for `COc1ccc(-c2cncc(S(=O)(=O)NC(C)(C)C)c2)cc1C(=O)Nc1cc2c(cc1C(=O)Nc1ccc(F)c(C(F)(F)F)c1)OC(F)(F)O2` [Example 70, 6-(5-(5-(N-(tert-butyl)sulfamoyl)pyridin-3-yl)-2-methoxybenzamido)-2,2-difluoro-N-(4-fluoro-3-(trifluoromethyl)phenyl) benzo[d][1,3]dioxole-5-carboxamide]: 6.88.
The same measure for `COc1ccc(S(=O)(=O)N2CCOC[C@@H]2CO)cc1C(=O)Nc1cc2nc(C)sc2cc1C(=O)Nc1ccc(F)c(C(F)(F)F)c1` [Example 14, (S)-N-(4-fluoro-3-(tri-fluoromethyl)-phenyl)-5-(5-((3-(hydroxy-methyl)morph-olino)sulfon-yl)-2-methoxy-benzamido)-2-methylbenzo [d]thiazole-6-carboxamide]: 5.85.
